Measured values from ChEMBL document CHEMBL5625190, “Novel fused imidazotriazines acting as promising top. II inhibitors and apoptotic inducers with greater selectivity against head and neck tumors: Design, synthesis, and biological assessments” (Eur J Med Chem, 2023).
Converted amounts (≈) assume the structure as drawn.

Tests used:
[1] = biological target: T1, DNA topoisomerase 2-alpha (Homo sapiens, UniProt P11388); test: Inhibition of human DNA topoisomerase 2alpha using supercoiled pHot1 DNA as substrate incubated for 30 mins
T1 sequence (P11388 whole entry): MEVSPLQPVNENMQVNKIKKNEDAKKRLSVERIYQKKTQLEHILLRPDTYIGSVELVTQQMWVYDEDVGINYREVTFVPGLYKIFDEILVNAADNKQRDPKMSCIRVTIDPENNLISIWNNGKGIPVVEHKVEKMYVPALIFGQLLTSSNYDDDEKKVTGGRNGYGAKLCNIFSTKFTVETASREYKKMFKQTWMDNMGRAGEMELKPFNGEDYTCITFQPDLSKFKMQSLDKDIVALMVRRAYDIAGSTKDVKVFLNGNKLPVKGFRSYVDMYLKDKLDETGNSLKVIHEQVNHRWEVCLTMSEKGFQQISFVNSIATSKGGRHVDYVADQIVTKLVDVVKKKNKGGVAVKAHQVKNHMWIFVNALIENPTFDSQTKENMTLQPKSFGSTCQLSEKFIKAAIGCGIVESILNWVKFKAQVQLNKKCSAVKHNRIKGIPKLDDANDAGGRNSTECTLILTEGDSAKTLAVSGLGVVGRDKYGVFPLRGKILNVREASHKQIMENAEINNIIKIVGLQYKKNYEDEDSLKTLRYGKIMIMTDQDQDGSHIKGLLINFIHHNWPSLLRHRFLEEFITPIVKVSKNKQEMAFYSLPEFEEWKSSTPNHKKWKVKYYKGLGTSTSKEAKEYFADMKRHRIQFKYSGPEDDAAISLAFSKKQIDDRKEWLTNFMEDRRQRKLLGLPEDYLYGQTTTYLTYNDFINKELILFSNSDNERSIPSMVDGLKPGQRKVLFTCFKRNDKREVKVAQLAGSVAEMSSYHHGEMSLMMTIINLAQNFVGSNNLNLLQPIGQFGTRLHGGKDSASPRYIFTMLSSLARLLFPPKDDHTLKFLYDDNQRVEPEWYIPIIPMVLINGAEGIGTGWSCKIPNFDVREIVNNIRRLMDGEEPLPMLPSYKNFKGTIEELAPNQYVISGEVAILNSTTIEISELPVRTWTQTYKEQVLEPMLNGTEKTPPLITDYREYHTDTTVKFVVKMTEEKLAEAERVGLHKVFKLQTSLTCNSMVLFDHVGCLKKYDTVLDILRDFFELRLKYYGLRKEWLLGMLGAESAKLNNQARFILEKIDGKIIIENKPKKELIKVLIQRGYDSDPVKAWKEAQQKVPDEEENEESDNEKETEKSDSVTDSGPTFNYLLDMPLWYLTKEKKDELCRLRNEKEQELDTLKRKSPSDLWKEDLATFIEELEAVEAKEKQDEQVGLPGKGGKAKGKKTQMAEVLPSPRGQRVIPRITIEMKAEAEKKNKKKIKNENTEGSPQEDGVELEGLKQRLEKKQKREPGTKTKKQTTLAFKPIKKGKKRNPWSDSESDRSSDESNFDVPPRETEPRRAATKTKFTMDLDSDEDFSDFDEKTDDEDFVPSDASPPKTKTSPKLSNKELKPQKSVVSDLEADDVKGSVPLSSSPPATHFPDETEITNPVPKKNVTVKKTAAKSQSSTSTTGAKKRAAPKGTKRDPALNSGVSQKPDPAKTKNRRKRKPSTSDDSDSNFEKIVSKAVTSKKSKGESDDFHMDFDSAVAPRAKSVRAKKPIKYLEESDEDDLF

Calf thymus DNA = test: Displacement of methyl green from calf thymus DNA assessed as DNA intercalation measured after 24 hrs; type: nucleic-acid assay, Bos taurus
HNO 97 cell line [2] = test: Growth inhibition of human HNO 97 cell line assessed as reduction in cell viability at 100 ug/ml by SRB colorimetric assay relative to control; type: functional; details: read-out: GI
MDA-MB-231 [3] = test: Growth inhibition of human MDA-MB-231 cells assessed as reduction in cell viability at 100 ug/ml by SRB colorimetric assay relative to control; type: functional; details: read-out: GI
HepG2 [4] = test: Growth inhibition of human HepG2 cells assessed as reduction in cell viability at 100 ug/ml by SRB colorimetric assay relative to control; type: functional; details: read-out: GI
Huh-7 = test: Growth inhibition of human Huh-7 cells assessed as reduction in cell viability at 100 ug/ml by SRB colorimetric assay relative to control; type: functional; details: read-out: GI
PC-3 = test: Growth inhibition of human PC-3 cells assessed as reduction in cell viability at 100 ug/ml by SRB colorimetric assay relative to control; type: functional; details: read-out: GI
A-375 = test: Growth inhibition of human A-375 cells assessed as reduction in cell viability at 100 ug/ml by SRB colorimetric assay relative to control; type: functional; details: read-out: GI
MCF7 = test: Growth inhibition of human MCF7 cells assessed as reduction in cell viability at 100 ug/ml by SRB colorimetric assay relative to control; type: functional; details: read-out: GI
HCT-116 = test: Growth inhibition of human HCT-116 cells assessed as reduction in cell viability at 100 ug/ml by SRB colorimetric assay relative to control; type: functional; details: read-out: GI
Caco-2 = test: Growth inhibition of human Caco-2 cells assessed as reduction in cell viability at 100 ug/ml by SRB colorimetric assay relative to control; type: functional; details: read-out: GI
MG-63 = test: Growth inhibition of human MG-63 cells assessed as reduction in cell viability at 100 ug/ml by SRB colorimetric assay relative to control; type: functional; details: read-out: GI
NCI-H460 = test: Growth inhibition of human NCI-H460 cells assessed as reduction in cell viability at 100 ug/ml by SRB colorimetric assay relative to control; type: functional; details: read-out: GI
A549 = test: Growth inhibition of human A549 cells assessed as reduction in cell viability at 100 ug/ml by SRB colorimetric assay relative to control; type: functional; details: read-out: GI
BT-474 = test: Growth inhibition of human BT-474 cells assessed as reduction in cell viability at 100 ug/ml by SRB colorimetric assay relative to control; type: functional; details: read-out: GI
[5] = Growth inhibition of human Oral epithelial cell assessed as reduction in cell viability at 100 ug/ml by SRB colorimetric assay relative to control; type: toxicity, cell-based; details: oral epithelial cells, at 100 µg/mL, read-out: GI
HNO 97 cell line [6] = test: Growth inhibition of human HNO 97 cell line assessed as reduction in cell viability by SRB colorimetric assay; type: functional, cell-based
MDA-MB-231 [7] = test: Growth inhibition of human MDA-MB-231 cell line assessed as reduction in cell viability by SRB colorimetric assay; type: functional, cell-based
HepG2 [8] = test: Growth inhibition of human HepG2 cell line assessed as reduction in cell viability by SRB colorimetric assay; type: functional, cell-based
[9] = biological target: DNA topoisomerase 2-beta (Homo sapiens) (UniProt Q02880); test: Inhibition of human DNA topoisomerase 2-beta by ELISA method relative to control; details: concentration not given here
Chain of DNA topoisomerase 2-beta (Homo sapiens) (Q02880 whole entry): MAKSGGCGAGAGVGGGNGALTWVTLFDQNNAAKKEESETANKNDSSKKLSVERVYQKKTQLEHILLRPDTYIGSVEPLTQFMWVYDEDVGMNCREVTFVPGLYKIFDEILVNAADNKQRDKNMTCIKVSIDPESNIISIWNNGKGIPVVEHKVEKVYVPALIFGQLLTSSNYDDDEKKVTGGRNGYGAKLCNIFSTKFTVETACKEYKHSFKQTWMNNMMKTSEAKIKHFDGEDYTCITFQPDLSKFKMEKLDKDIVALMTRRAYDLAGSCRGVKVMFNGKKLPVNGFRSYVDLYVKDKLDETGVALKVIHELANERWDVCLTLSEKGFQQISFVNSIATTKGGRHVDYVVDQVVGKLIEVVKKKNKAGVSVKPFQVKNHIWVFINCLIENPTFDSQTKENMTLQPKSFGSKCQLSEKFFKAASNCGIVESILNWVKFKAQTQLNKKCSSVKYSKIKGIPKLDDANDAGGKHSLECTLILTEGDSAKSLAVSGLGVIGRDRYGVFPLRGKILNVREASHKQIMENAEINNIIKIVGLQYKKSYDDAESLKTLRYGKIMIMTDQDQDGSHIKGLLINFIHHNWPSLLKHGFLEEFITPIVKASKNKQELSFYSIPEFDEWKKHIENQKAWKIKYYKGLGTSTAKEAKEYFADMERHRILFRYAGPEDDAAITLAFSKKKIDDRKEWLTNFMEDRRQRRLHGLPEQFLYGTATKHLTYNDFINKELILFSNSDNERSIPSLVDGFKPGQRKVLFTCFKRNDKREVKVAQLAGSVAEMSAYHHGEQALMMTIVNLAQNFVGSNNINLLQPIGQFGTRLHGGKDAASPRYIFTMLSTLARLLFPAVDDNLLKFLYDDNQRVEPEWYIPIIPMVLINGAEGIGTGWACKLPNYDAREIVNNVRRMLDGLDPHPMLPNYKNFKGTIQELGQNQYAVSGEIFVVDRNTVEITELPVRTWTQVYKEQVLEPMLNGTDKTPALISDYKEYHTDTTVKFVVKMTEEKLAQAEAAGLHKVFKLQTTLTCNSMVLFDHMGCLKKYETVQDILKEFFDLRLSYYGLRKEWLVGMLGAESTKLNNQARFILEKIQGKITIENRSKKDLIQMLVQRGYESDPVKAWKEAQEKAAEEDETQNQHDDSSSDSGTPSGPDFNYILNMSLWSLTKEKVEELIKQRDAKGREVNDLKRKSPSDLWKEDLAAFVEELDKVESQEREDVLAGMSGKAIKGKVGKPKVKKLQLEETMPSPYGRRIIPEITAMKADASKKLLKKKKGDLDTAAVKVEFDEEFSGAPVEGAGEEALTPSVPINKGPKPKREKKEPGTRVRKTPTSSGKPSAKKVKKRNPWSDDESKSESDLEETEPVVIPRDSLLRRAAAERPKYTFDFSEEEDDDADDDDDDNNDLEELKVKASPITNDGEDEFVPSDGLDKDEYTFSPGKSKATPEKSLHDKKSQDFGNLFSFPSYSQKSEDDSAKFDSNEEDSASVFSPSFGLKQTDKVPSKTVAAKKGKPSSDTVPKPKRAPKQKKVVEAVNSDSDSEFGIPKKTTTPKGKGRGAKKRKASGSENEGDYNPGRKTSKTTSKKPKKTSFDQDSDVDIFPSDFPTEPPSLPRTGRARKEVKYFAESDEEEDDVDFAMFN

HNO 97 cell line [10] = test: Induction of cell cycle arrest in human HNO 97 cell line assessed as increase in cell level at S phase by flow cytometry analysis (reference value: 23.37%); type: functional
HNO 97 cell line [11] = test: Induction of cell cycle arrest in human HNO 97 cell line assessed as increase in cell level at G2-M phase by flow cytometry analysis (reference value: 0.66%); type: functional
HNO 97 cell line [12] = test: Induction of apoptosis in human HNO 97 cell line assessed as increase in early apoptotic cells by Annexin-V/PI staining based analysis (reference value: 0.23%); type: functional
HNO 97 cell line [13] = test: Induction of apoptosis in human HNO 97 cell line assessed as increase in late apoptotic cells by Annexin-V/PI staining based analysis (reference value: 0.12%); type: functional
[14] = Upregulation of p53 expression in human HNO 97 cell line assessed as fold change by sandwich ELISA analysis; type: functional
[15] = Upregulation of BAX expression in human HNO 97 cell line assessed as fold change by sandwich ELISA analysis; type: functional
[16] = Downregulation of IL-6 expression in human HNO 97 cell line assessed as fold change by sandwich ELISA analysis; type: functional
[17] = Downregulation of BCL2 expression in human HNO 97 cell line assessed as fold change by sandwich ELISA analysis; type: functional
HNO 97 cell line [18] = test: Antioxidant activity against human HNO 97 cell line assessed as increase in GSH level measured after 48 hrs by Ellmans method relative to control; type: functional
HNO 97 cell line [19] = test: Antioxidant activity against human HNO 97 cell line assessed as MDA level measured after 48 hrs relative to control; type: functional
HNO 97 cell line [20] = test: Antioxidant activity against human HNO 97 cell line assessed as NO level measured after 48 hrs relative to control; type: functional
[21] = biological target: T1, DNA topoisomerase 2-alpha; test: Inhibition of human DNA topoisomerase 2alpha
HL-60 = test: Antiproliferative activity against human HL-60 cells; type: functional, cell-based

Compound	IC50 (Calf thymus DNA) [µM]	inhibition of growth at 100 µg/mL (HNO 97 cell line [2]) [%]	inhibition of growth at 100 µg/mL (MDA-MB-231 [3]) [%]	inhibition of growth at 100 µg/mL (HepG2 [4]) [%]	inhibition of growth at 100 µg/mL (Huh-7) [%]	inhibition of growth at 100 µg/mL (PC-3) [%]	inhibition of growth at 100 µg/mL (A-375) [%]	inhibition of growth at 100 µg/mL (MCF7) [%]	inhibition of growth at 100 µg/mL (HCT-116) [%]	inhibition of growth at 100 µg/mL (Caco-2) [%]	inhibition of growth at 100 µg/mL (MG-63) [%]	inhibition of growth at 100 µg/mL (NCI-H460) [%]	inhibition of growth at 100 µg/mL (A549) [%]	inhibition of growth at 100 µg/mL (BT-474) [%]	inhibition at 100 ug/ml [5] [%]	IC50 (HNO 97 cell line [6]) [µg/mL]	IC50 (MDA-MB-231 [7]) [µg/mL]	IC50 (HepG2 [8]) [µg/mL]	inhibition [9] [%]	Activity (HNO 97 cell line [10]) [%]	also measured
CCCc1nnc2c3ccccc3c(N/N=C/c3ccc([N+](=O)[O-])cc3)nn12	26.2																				IC50 [1]: 7.02 µM
NC1=Nc2nc3ccccc3n2C(c2ccc(Cl)c(Cl)c2)N1 (stereo unspecified)		78	75	63.6	72.5	75.5	63	62	51.1	50.7	66.4	73.4	67.5	57.7	41.6	3 (≈ 9.03 µM)	4 (≈ 12 µM)	4.8 (≈ 14.4 µM)	81.7	58.07	Activity (HNO 97 cell line [11]): 4.99%; Activity (HNO 97 cell line [12]): 9.27%; Activity (HNO 97 cell line [13]): 0.9%; fold change (FC) [14]: 2.16; fold change (FC) [15]: 2.39; fold change (FC) [16]: 0.67; fold change (FC) [17]: 0.24; Activity (HNO 97 cell line [18]): 189.32%; Activity (HNO 97 cell line [19]): 51.93%; Activity (HNO 97 cell line [20]): 62.06%
O=C(N/N=C/c1ccncc1)c1cccc2c(=O)c3ccccc3[nH]c12																					IC50 [21]: 2.26 µM; IC50 (HL-60): 0.48 µM
COc1cccc2c1C(=O)c1c(O)c3c(c(O)c1C2=O)C[C@@](O)(C(=O)CO)C[C@@H]3O[C@H]1C[C@H](N)[C@H](O)[C@H](C)O1 [DOXORUBICIN]		80.3	78.2	59.3	74.8	68	64.1	69	71.3	80.8	69.9	73.6	49	44.7	70.4	9 (≈ 16.6 µM)	8.6 (≈ 15.8 µM)	4.6 (≈ 8.46 µM)	86.4		
O=C(NNC(=O)c1ccc(Nc2nc3ccccc3n3cnnc23)cc1)NC1CCCCC1	25.3																				
NC1=Nc2nc3ccccc3n2C(c2ccc(Cl)cc2Cl)N1 (stereo unspecified)		82.6	71.5	76.5	73.6	74.3	67.2	72.6	51.8	63.4	66.7	71.8	69	52.4	62.8	4 (≈ 12 µM)	10 (≈ 30.1 µM)	9 (≈ 27.1 µM)	87.9	46.4	Activity (HNO 97 cell line [11]): 27.94%; Activity (HNO 97 cell line [12]): 4.99%; Activity (HNO 97 cell line [13]): 1.42%; fold change (FC) [14]: 2.32; fold change (FC) [15]: 2.46; fold change (FC) [16]: 0.64; fold change (FC) [17]: 0.15; Activity (HNO 97 cell line [18]): 177.01%; Activity (HNO 97 cell line [19]): 46.33%; Activity (HNO 97 cell line [20]): 56.5%
